The values that follow come from patent US20240254119A1 (THIRD HARMONIC BIO, INC., priority 2022, published 2024).

Molecules are shown by their SMILES. Some results are limits rather than exact numbers.

In general, IC50 refers to the point on the concentration scale where inhibition reaches its midpoint.

For one series, the target named is T1, wtKIT (Homo sapiens, UniProt P10721).
T1 construct: 1888289AM in the reaction mixtures
Nature of the series: HTRF biochemical assay, wtKIT (phosphorylation of a peptide substrate). To be noted: Table 4. A digest of the protocol: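 wtKIT (5.0 nM) phosphorylating 1 µM FAM-labelled peptide with 400 µM ATP and 10 mM MnCl2 in 100 mM HEPES pH 7.5, 1% DMSO, 3 h at 25 °C. EDTA quench; phosphopeptide detected with anti-phosphotyrosine antibody by HTRF. Enzyme titrated for 10-20% substrate conversion.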
In general terms: TR-FRET usually uses a lanthanide donor and a delayed reading to cut background.

The next series relates to Caco-2 cells. Nature of the series: Caco-2 permeability assay. Format: in vitro ADME. Particulars: for Caco-2: Papp A-B: Caco-2, apical to basolateral. Here is the method: Exemplary compounds were tested for cell permeability in Caco-2, MDCKII-MDR1 and MDCKII-BCRP cell lines with efflux transporter engagement inferred from the efflux ratios determined. Procedures and results are described below. […] This feature of certain compounds is in part due to efflux transporter engagement. See, for instance, exemplary such compounds included in data tables below.
The transport buffer in the study was HBSS with 10.0 mM HEPES at pH 7.40±0.05. Test compound was tested at 2.00 μM bi-directionally in duplicate. Digoxin was tested at 10.0 μM bi-directionally in duplicate, while nadolol and metoprolol were tested at 2.00 μM in A to B direction in duplicate. Final DMSO concentration was adjusted to less than 1%. The plate was incubated for 2 hours in CO2 incubator at 37±1° C., with 5% CO2 at saturated humidity without shaking. And all samples after mixed with acetonitrile containing internal standard were centrifuged at 3200×g for 10 min. For nadolol and metoprolol, 200 μL supernatant solution was diluted with 600 μL ultra-pure water for LC-MS/MS analysis. For digoxin and test compounds, 200 μL supernatant solution was diluted with 200 μL ultra-pure water for LC-MS/MS analysis. Concentrations of test and control compounds in starting solution, donor solution, and receiver solution were quantified by LC-MS/MS methodologies, using peak area ratio of analyte/internal standard.
After transport assay, lucifer yellow rejection assay was applied to determine the Caco-2 cell monolayer integrity.
[…] And permeation of lucifer yellow through the monolayer was measured to evaluate the cellular integrity.
The apparent permeability coefficient Papp (cm/s) was calculated using the equation: Papp=(dCr/dt)×Vr/(A×C0), where dCr/dt is the cumulative concentration of compound in the receiver chamber as a function of time (μM/s); Vr is the solution volume in the receiver chamber (0.075 mL on the apical side, 0.25 mL on the basolateral side); A is the surface area for the transport, i.e. 0.0804 cm^2 for the area of the monolayer; C0 is the initial concentration in the donor chamber (μM).
The efflux ratio was calculated using the equation: Efflux Ratio=Papp (BA)/Papp(AB).
Percent recovery was calculated using the equation: % Solution Recovery=100×[(Vr×Cr)+(Vd×Cd)]/(Vd×C0), where Vd is the volume in the donor chambers (0.075 mL on the apical side, 0.25 mL on the basolateral side); Cd and Cr are the final concentrations of transport compound in donor and receiver chambers, respectively.
For orientation: Passage across Caco-2 layers is used to estimate intestinal permeability.

T1 sequence (P10721 26-976): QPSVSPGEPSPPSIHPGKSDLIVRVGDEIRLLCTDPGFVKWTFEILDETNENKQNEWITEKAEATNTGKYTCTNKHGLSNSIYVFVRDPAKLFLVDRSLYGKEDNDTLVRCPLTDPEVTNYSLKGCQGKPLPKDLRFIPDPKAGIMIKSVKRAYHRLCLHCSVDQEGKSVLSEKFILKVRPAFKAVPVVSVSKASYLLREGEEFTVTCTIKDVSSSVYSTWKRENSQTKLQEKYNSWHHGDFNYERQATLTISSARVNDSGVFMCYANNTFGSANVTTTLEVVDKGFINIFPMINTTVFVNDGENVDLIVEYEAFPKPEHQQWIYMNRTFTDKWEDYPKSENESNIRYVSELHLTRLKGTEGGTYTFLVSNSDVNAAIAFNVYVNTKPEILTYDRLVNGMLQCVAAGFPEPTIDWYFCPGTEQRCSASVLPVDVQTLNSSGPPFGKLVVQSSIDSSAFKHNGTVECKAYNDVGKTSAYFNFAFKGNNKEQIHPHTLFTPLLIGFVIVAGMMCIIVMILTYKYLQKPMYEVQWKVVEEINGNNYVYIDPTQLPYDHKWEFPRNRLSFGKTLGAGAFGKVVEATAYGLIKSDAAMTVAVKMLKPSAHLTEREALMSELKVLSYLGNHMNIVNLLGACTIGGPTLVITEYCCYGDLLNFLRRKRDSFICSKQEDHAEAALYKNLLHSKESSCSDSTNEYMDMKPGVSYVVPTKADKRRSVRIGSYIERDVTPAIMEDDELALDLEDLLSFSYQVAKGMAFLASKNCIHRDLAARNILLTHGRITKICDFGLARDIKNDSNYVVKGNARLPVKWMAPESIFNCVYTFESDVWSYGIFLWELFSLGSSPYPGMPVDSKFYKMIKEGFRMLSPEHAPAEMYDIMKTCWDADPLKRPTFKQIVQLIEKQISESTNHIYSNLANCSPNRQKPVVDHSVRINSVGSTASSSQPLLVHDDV

In the case of `COC(=O)N1CC(c2nc(-c3ccc(C(F)F)c(NC(=O)c4cnc5ccccn45)c3)no2)C1` [Compound I-225], the IC50 at wtKIT was at most 50 nM. Also, in the series on Caco-2 cells, the “Caco-2: Efflux Ratio” value was 1.37 and the “Caco-2: Papp A-B” value is given as 9.62 10^−6 cm/s.

Take `Cc1ccc(-c2noc([C@H]3C[C@@H]3F)n2)cc1NC(=O)c1cnc2cc(OC(C)C)ccn12` [Compound I-88]: the IC50 at wtKIT is at most 50 nM. In the series on Caco-2 cells, the “Caco-2: Efflux Ratio” value is given as 0.79 and the “Caco-2: Papp A-B” value is listed as 6.24 10^−6 cm/s.

With `Cc1ccc(-c2noc(CCO)n2)cc1NC(=O)c1cnc2ccccn12` [Compound I-306], on wtKIT, the half-maximal inhibitory concentration (IC50) was 50 to 500 nM. Moreover, in the series with Caco-2 cells, the “Caco-2: Efflux Ratio” value is on record as 3.66 and the “Caco-2: Papp A-B” value is listed as 7.03 10^−6 cm/s.

As for `Cc1ccc(-c2noc(C3CCN3)n2)cc1NC(=O)c1cnc2ccccn12` (racemic) [Compound I-394], on wtKIT, the IC50 lay in the range of 50 to 500 nM. In the series on Caco-2 cells, the “Caco-2: Efflux Ratio” value came out at 3.48 and the “Caco-2: Papp A-B” value is listed as 6.31 10^−6 cm/s.

In the case of `CCCS(=O)(=O)N1CC(c2nc(-c3ccc(Cl)c(NC(=O)c4cnc5ccccn45)c3)no2)C1` [Compound I-220], the IC50 at wtKIT was at most 50 nM. Moreover, in the series on Caco-2 cells, the “Caco-2: Efflux Ratio” value is listed as 0.25 and the “Caco-2: Papp A-B” value was 16.5 10^−6 cm/s.

For the compound `Cc1ccc(-c2noc([C@H]3C[C@@H]3F)n2)cc1NC(=O)c1cnc2cc(OC(F)(F)F)ccn12` [Compound I-87], on wtKIT, the concentration for half-maximal inhibition (IC50) was 50 to 500 nM. Besides, in the series with Caco-2 cells, the “Caco-2: Efflux Ratio” value is recorded as 0.66 and the “Caco-2: Papp A-B” value was 7.81 10^−6 cm/s.

Turning to `Cc1ccc(-c2noc(C(C)NS(C)(=O)=O)n2)cc1NC(=O)c1cnc2ccccn12` (single isomer, unassigned) [Compound I-237], the half-maximal inhibitory concentration (IC50) at wtKIT was in the range of 50 to 500 nM. Moreover, in the series on Caco-2 cells, the “Caco-2: Efflux Ratio” value is listed as 57.6 and the “Caco-2: Papp A-B” value is 0.50 10^−6 cm/s.

In the case of `Cc1ccc(-c2noc([C@H]3CC(F)(F)CN3)n2)cc1NC(=O)c1cnc2ccccn12` [Compound I-359], the IC50 at wtKIT was 50 to 500 nM. In the series on Caco-2 cells, the “Caco-2: Efflux Ratio” value turned out to be 1.19 and the “Caco-2: Papp A-B” value was 9.88 10^−6 cm/s.

For the compound `COCCOCc1ccn2c(C(=O)Nc3cc(-c4noc([C@H]5C[C@@H]5F)n4)ccc3C)cnc2c1` [Compound I-84], at wtKIT, the IC50 was at most 50 nM. Moreover, in the series with Caco-2 cells, the “Caco-2: Efflux Ratio” value turned out to be 1.8 and the “Caco-2: Papp A-B” value is 11.8 10^−6 cm/s.

Take `Cc1ccc(-c2noc(CC(O)C(F)F)n2)cc1NC(=O)c1cnc2ccccn12` (stereo not drawn) [Compound I-114]: the concentration for half-maximal inhibition (IC50) at wtKIT is at most 50 nM. Also, in the series with Caco-2 cells, the “Caco-2: Efflux Ratio” value came to 4.4 and the “Caco-2: Papp A-B” value is given as 6.74 10^−6 cm/s.

On to `Cc1ccc(-c2noc([C@H]3C[C@@H]3F)n2)cc1NC(=O)c1cnc2ccc(F)cn12` [Compound I-288], for which the IC50 on wtKIT was at most 50 nM. For the same compound, in the series with Caco-2 cells, the “Caco-2: Efflux Ratio” value was 0.56 and the “Caco-2: Papp A-B” value is reported as 17.4 10^−6 cm/s.

Take `Cc1nc(-c2ccc(C)c(NC(=O)c3cnc4ccccn34)c2)no1` [Compound I-360]: the IC50 on wtKIT is at most 50 nM. In addition, in the series with Caco-2 cells, the “Caco-2: Efflux Ratio” value was 0.36 and the “Caco-2: Papp A-B” value is listed as 12.7 10^−6 cm/s.
